Measurements reported in US20250345318A1, “COMPOUND AND USE THEREOF IN PREVENTING OR TREATING RADIATION DAMAGE” (SIMCERE PHARMACEUTICAL CO., LTD., priority 2022, published 2025).

Assays:
C57BL/6 male mice = assay: Lengths of small intestine and colon, acute radiation enteritis (Example 11); assay type: in vivo; conditions: JAC4 100 mg/kg oral + abdominal X-ray 12 Gy
Procedure: C57BL/6 male mice (27.6±1.9 g in body weight) aged 10 weeks were divided into 3 groups of 6 mice each. JAC4 (100 mg/kg) or an equal volume of vehicle (polyethylene glycol:ethanol:physiological saline=40:7.5:52.5, v/v/v) was orally administered to the mice once daily for 7 consecutive days. After that, the mice were subjected to abdominal X-ray irradiation (12 Gy) and JAC4 or vehicle treatment was continued. After 4 days, blood samples and small intestine were collected.
The small intestine epithelial mucosal barrier is located at the interface between luminal micro-organisms and the mucosal immune system, and can maintain the intestinal mucosal barrier homeostasis. The integrity of the small intestine mucosal barrier is determined by a number of factors, including the tight junction proteins, proteins in other cell junction complexes, and the like. JAC4 has a protective effect on the small intestine mucosal barrier. The disruption of the small intestine mucosal barrier may lead to radiation enteritis and a reduction in the length of small intestine due to the inflammatory edema.

IEC-6 cells [1] = assay: γ-H2AX immunofluorescence in irradiated IEC-6 cells (Example 13); assay type: cell-based; conditions: JAC4 + radiation
Procedure: The cell immunofluorescent images of γ-H2AX in different treatment groups were recorded after the IEC-6 cells were irradiated, and the mean fluorescence intensity of individual cells (***p<0.001) was measured using Image J. The results are shown in FIG. 19.

BEAS-2B cells = assay: CCK-8 cell viability, JAC4 with X-ray, BEAS-2B (Example 22); assay type: cell-based, human; conditions: 10 μM JAC4 24 h + 4 Gy X-ray 24 h
Procedure: SPCA-1 and BEAS-2B cells were cultured in a 90%/DMEM+10% FBS+100 μg/mL ciprofloxacin culture medium. The SPCA-1 and BEAS-2B cells were pretreated for 24 h with 10 μM JAC4 and subjected to 4 Gy X-ray treatment for 24 h and then CCK-8 detection, so as to explore the influence of JAC4 in combination with X-ray on the viability of SPCA-1 and BEAS-2B cells. The specific procedures are as follows:
1. SPCA-1 and BEAS-2B cells in the exponential growth phase were plated in a 96-well plate at 5,000 cells/well in triplicate for each group.
2. After 24 h of culture, when the cells fully adhered to the container wall and returned to normal morphology, the cells were treated with X-ray radiation of 0, 4, 8, 12, 16, or 20 Gy or JAC4 at 0, 1, 5, 10, 20, or 50 μM.
3. After 24 h of treatment, CCK-8 reagent was added at 10 μL/well, and the cells were incubated in a cell incubator for 1 h. The absorbance (OD) at 450 nm was measured.
4. Cell viability equation: cell viability (%)=[…]×100%/(ODcontrol−ODblank).

SPCA-1 cells = assay: γ-H2AX foci and Western blot (DSBs), SPCA-1 (Example 22); assay type: cell-based, human
Procedure: To investigate the effect of JAC4 in combination with X-ray on DSBs in SPCA-1 and BEAS-2B cells, SPCA-1 and BEAS-2B cells were pretreated with 10 μM JAC4 for 24 h and 4 Gy X-ray for 2 h, and then subjected to γ-H2AX fluorescent labeling and Western immunoblot (see Example 4 for detailed procedures).

IEC-6 cells [2] = assay: Colocalization of cytochrome C and mitochondria in irradiated IEC-6 cells (Example 13); assay type: cell-based; conditions: 1 μM JAC4 24 h pretreatment + 12 Gy, 24 h after
Procedure: The effect was explored in a small intestinal epithelial IEC-6 cell in-vitro radiation model.
Formulation of JAC4 (1 μM or 10 μM): 5 mg of JAC4 was added to 1527 μL of DMSO to prepare a 10 mM stock solution, which was then serially diluted into 2 mM and 200 μM stock solutions.
10 μL of 200 μM stock solution was added into 90 μL of complete culture medium. The 100-μL mixture was uniformly mixed before 900 μL of complete culture medium was added, and uniformly mixed again before 1 mL of complete culture medium was added. The mixture was again uniformly mixed and then added into a six-well plate to give 1 μM JAC4.
Control wells: 10 μL of DMSO was added into 90 μL of complete culture medium. The 100-μL mixture was uniformly mixed before 900 μL of complete culture medium was added, and uniformly mixed again before 1 mL of complete culture medium was added. The mixture was again uniformly mixed and then added into a six-well plate.
IEC-6 cells were pretreated for 24 h with 1 μM JAC4 or DMSO and subjected to radiation (12 Gy) treatment. After 24 h, colocalized cell immunofluorescent images of mitochondrial cytochrome C staining and mitochondria staining were acquired and subjected to fluorescent colocalization analysis using the Image J software to give colocalization correlation coefficients (***p<0.001) of cytochrome C and mitochondria in IEC-6 cells after different treatments.

[3] = SPCA-1, 10 μM JAC4 + 4 Gy X-ray vs X-ray monotherapy

## c1ccc(CSc2nnc(C3COc4ccccc4O3)o2)nc1 (centres unmarked) [JAC4]
C57BL/6 male mice; 4 days after
  small intestine length: 34.83±1.44 cm
C57BL/6 male mice; among the groups
  length of the colon: no statistically significant differences
IEC-6 cells [1]
  mean fluorescence intensity of γ-H2AX: 26.00±1.79
BEAS-2B cells
  BEAS-2B cell viability (CCK-8): alleviated the inhibitory effect of X-ray
SPCA-1 cells; SPCA-1, 10 μM JAC4 24 h + 4 Gy X-ray 2 h vs X-ray monotherapy
  γ-H2AX foci: increase
SPCA-1 cells; [3]
  JWA expression level (Western blot): increased
  γ-H2AX expression level (Western blot): increased
IEC-6 cells [2]
  fluorescent colocalization correlation coefficient of the mitochondria and cytochrome C: 0.73±0.02
